According to patent US8168675B2, “Compositions and methods for treating neurodegenerative diseases” (Marin Bio Co., Ltd., priority 2008, dated 2012):

Assays:
Assay type in all cases: in vivo
C57BL/6 (B6) mice [1] = experiment: ABR hearing threshold measurement in aged mice (presbycusis model); conditions: dietary supplementation from 4 to 15 months of age, *P<0.05, n=5 vs Control
Method: (§1) Details on the methods used to house and feed male inbred C57BL/6 (B6) mice have been described (Pugh et al., Cancer Res. 59:1642 [1999]). Briefly, Mice were divided into five groups: control, α-lipoic acid (ALA), CLA, coenzyme Q10 (CQ), and phenylalanine (PA). The compound treatment groups were fed the same caloric intake as controls, but were supplemented with ALA (150 mg/kg), CLA (5000 mg/kg), CQ (50 mg/kg), and PA (250 mg/kg) from 4 months of age until 15 months of age (FIG. 1).
Detailed protocols for ABR measurement have been described (Yamasoba et al., Neurosci Lett. 395:18 [2005]). […] Mice were anesthetized with a mixture of xylazine hydrochloride (10 mg/kg, i.m.) and ketamine hydrochloride (40 mg/kg, i.m.). Five to seven mice per group were used for this study, and the same mice were used for the following histopathological analyses. Data were examined using the two-tailed standard t-test and were tested for statistical significance using a One Way ANOVA test (GraphPad Prisim 5.0, San Diego, Calif.). All data were reported as mean±S.E.M.

C57BL/6 (B6) mice [2] = experiment: Spiral ganglion cell counting (SGC density); conditions: dietary supplementation from 4 to 15 months of age, *P<0.05, n=5
Method: as §1
SGCs were identified by the presence of a nucleus. The SGC density was calculated as the number of SGCs per 1 mm^2. Five sections of the unilateral apical turn were evaluated in one cochlea per mouse. Data were analyzed using the two-tailed standard t-test. All data were reported as mean±S.E.M.

C57BL/6 (B6) mice [3] = experiment: Cochlear histopathology (hair cells and SGCs); conditions: dietary supplementation from 4 to 15 months of age, HE-stained cochlear sections, Control showed severe loss
Method: as §1
Detailed protocols for tissue processing have been described (Someya et al., [2007], supra). Briefly, 4% paraformaldehyde-fixed and paraffin-embedded specimens were sliced into 4 μm sections, mounted on silane-coated slides, stained with Haematoxylin and Eosin (HE), and observed under a light microscope (Leica Microsystems, Bannockburn, Ill.). The Rosenthal's canal was divided into three regions: apical, middle and basal (Keithley et al., [2004], supra) and the three regions were used for evaluation of cochlear histopathology. Five mice were used for each group that were the same mice as those used in the ABR tests. Five modiolar sections obtained in every fifth section from one unilateral cochlea were evaluated per mouse. The same animals were used for spiral ganglion cell counting.

## conjugated linoleic acid [CLA]
C57BL/6 (B6) mice [1]
  hearing by ABR thresholds at 32 kHz: normal hearing

## N[C@@H](Cc1ccccc1)C(=O)O [PA, phenylalanine]
C57BL/6 (B6) mice [2]
  mean spiral ganglion cell density vs Control mice: significantly higher
C57BL/6 (B6) mice [3]
  loss of hair cells and SGCs in the cochleae: no or only a few loss
C57BL/6 (B6) mice [1]
  hearing by ABR thresholds at 32 kHz: normal hearing

## COC1=C(OC)C(=O)C(C/C=C(\C)CC/C=C(\C)CC/C=C(\C)CC/C=C(\C)CC/C=C(\C)CC/C=C(\C)CC/C=C(\C)CC/C=C(\C)CC/C=C(\C)CCC=C(C)C)=C(C)C1=O [CQ, coenzyme Q10]
C57BL/6 (B6) mice [2]
  mean spiral ganglion cell density vs Control mice: significantly higher
C57BL/6 (B6) mice [3]
  loss of hair cells and SGCs in the cochleae: no or only a few loss
C57BL/6 (B6) mice [1]; 8 and 32 kHz
  hearing by ABR thresholds at 8 and 32 kHz: normal hearing

## O=C(O)CCCCC1CCSS1 (stereo not drawn) [ALA, α-lipoic acid]
C57BL/6 (B6) mice [2]
  mean spiral ganglion cell density vs Control mice: significantly higher
C57BL/6 (B6) mice [3]
  loss of hair cells and SGCs in the cochleae: no or only a few loss
C57BL/6 (B6) mice [1]
  hearing by ABR thresholds at 32 kHz: normal hearing
